From ChEMBL document CHEMBL4699611, “Synthesis and evaluation of HIF-1α inhibitory activities of novel panaxadiol derivatives” (Bioorg Med Chem Lett, 2020)

How the values were obtained:
Type in all cases: cell-based
[1] = target: Hypoxia-inducible factor 1-alpha (Homo sapiens, UniProt Q16665); assay: Inhibition of hypoxia-induced HIF1alpha transcriptional activity in human Hep3B cells co-transfected with luciferase reporter plasmid containing six copies of HREs and pRL-CMV vector assessed as reduction in luciferase activity incubated for 24 hrs under hypoxic condition by HRE-dependent dual luciferase reporter gene assay
Hep 3B2 [2] = assay: Cytotoxicity against human Hep3B cells assessed as reduction in cell viability incubated for 24 hrs under normaxic condition by MTT assay
Hep 3B2 [3] = assay: Cytotoxicity against human Hep3B cells assessed as reduction in cell viability at 30 uM incubated for 24 hrs in presence of 20% O2 by MTT assay; settings: hep 3b2, 24 h

SMILES | IC50 [1] | IC50 (Hep 3B2 [2]) | inhibition [1] | Activity (Hep 3B2 [3])
CC1(C)CCC[C@](C)([C@H]2CC[C@]3(C)[C@@H]2[C@H](O)C[C@@H]2[C@@]4(C)CC(=C\c5ccc(Cl)cc5)/C(=N\NC(N)=O)C(C)(C)[C@@H]4CC[C@]23C)O1 | 5.5 µM | 11.3 µM |  | 
Cc1ccc(/C=C2\C[C@]3(C)[C@H]4C[C@@H](O)[C@@H]5[C@@H]([C@@]6(C)CCCC(C)(C)O6)CC[C@@]5(C)[C@]4(C)CC[C@H]3C(C)(C)\C2=N\NC(N)=S)cc1 | 6.1 µM | 43.1 µM |  | 
CC1(C)CCC[C@](C)([C@H]2CC[C@]3(C)[C@@H]2[C@H](O)C[C@@H]2[C@@]4(C)CC/C(=N\Nc5ccc(Cl)cc5Cl)C(C)(C)[C@@H]4CC[C@]23C)O1 | 3.7 µM | > 100 µM | Dose-dependent effect | Non-Toxic
CC1(C)CCC[C@](C)([C@H]2CC[C@]3(C)[C@@H]2[C@H](OC(=O)CNc2nnn[nH]2)C[C@@H]2[C@@]4(C)CCC(=O)C(C)(C)[C@@H]4CC[C@]23C)O1 | 36.2 µM | > 100 µM |  | 
CC1(C)CCC[C@](C)([C@H]2CC[C@]3(C)[C@@H]2[C@H](OC(=O)Cn2nnnc2-c2ccc(Cl)cc2)C[C@@H]2[C@@]4(C)CCC(=O)C(C)(C)[C@@H]4CC[C@]23C)O1 | 12.4 µM | 42.9 µM |  | 
CC1(C)CCC[C@](C)([C@H]2CC[C@]3(C)[C@@H]2[C@H](O)C[C@@H]2[C@@]4(C)CC/C(=N\Nc5ccc(Cl)cc5)C(C)(C)[C@@H]4CC[C@]23C)O1 | 26 µM | > 100 µM |  | 
CC1(C)CCC[C@](C)([C@H]2CC[C@]3(C)[C@@H]2[C@H](O)C[C@@H]2[C@@]4(C)CC(=C\c5ccc(F)cc5)/C(=N\NC(N)=O)C(C)(C)[C@@H]4CC[C@]23C)O1 | 11.7 µM | > 100 µM |  | 
Cc1ccc(N/N=C2\CC[C@]3(C)[C@H]4C[C@@H](O)[C@@H]5[C@@H]([C@@]6(C)CCCC(C)(C)O6)CC[C@@]5(C)[C@]4(C)CC[C@H]3C2(C)C)cc1 | 7.1 µM | > 100 µM |  | 
Cc1cccc(N/N=C2\CC[C@]3(C)[C@H]4C[C@@H](O)[C@@H]5[C@@H]([C@@]6(C)CCCC(C)(C)O6)CC[C@@]5(C)[C@]4(C)CC[C@H]3C2(C)C)c1 | 56.5 µM | > 100 µM |  | 
CC1(C)CCC[C@](C)([C@H]2CC[C@]3(C)[C@@H]2[C@H](O)C[C@@H]2[C@@]4(C)CC/C(=N\Nc5cccc(F)c5)C(C)(C)[C@@H]4CC[C@]23C)O1 | 67 µM | > 100 µM |  | 
CC1(C)CCC[C@](C)([C@H]2CC[C@]3(C)[C@@H]2[C@H](O)C[C@@H]2[C@@]4(C)CC(=C\c5ccc(O)cc5)/C(=N\NC(=N)N)C(C)(C)[C@@H]4CC[C@]23C)O1 | 6.2 µM | 6.3 µM |  | 
CC1(C)CCC[C@](C)([C@H]2CC[C@]3(C)[C@@H]2[C@H](O)C[C@@H]2[C@@]4(C)CC(=C\c5ccc(Cl)cc5)/C(=N\NC(N)=S)C(C)(C)[C@@H]4CC[C@]23C)O1 | > 100 µM | > 100 µM |  | 
Cc1ccc(/C=C2\C[C@]3(C)[C@H]4C[C@@H](O)[C@@H]5[C@@H]([C@@]6(C)CCCC(C)(C)O6)CC[C@@]5(C)[C@]4(C)CC[C@H]3C(C)(C)\C2=N\NC(=N)N)cc1 | 37.7 µM | 11.3 µM |  | 
Cc1ccccc1N/N=C1\CC[C@]2(C)[C@H]3C[C@@H](O)[C@@H]4[C@@H]([C@@]5(C)CCCC(C)(C)O5)CC[C@@]4(C)[C@]3(C)CC[C@H]2C1(C)C | 24.9 µM | > 100 µM |  | 
Cc1ccc(/C=C2\C[C@]3(C)[C@H]4C[C@@H](O)[C@@H]5[C@@H]([C@@]6(C)CCCC(C)(C)O6)CC[C@@]5(C)[C@]4(C)CC[C@H]3C(C)(C)\C2=N\NC(N)=O)cc1 | 9.8 µM | 4.1 µM |  | 
CC1(C)CCC[C@](C)([C@H]2CC[C@]3(C)[C@@H]2[C@H](O)C[C@@H]2[C@@]4(C)CC(=C\c5ccc(F)cc5)/C(=N\NC(=N)N)C(C)(C)[C@@H]4CC[C@]23C)O1 | 4.8 µM | > 100 µM |  | 

SMILES | IC50 [1] | IC50 (Hep 3B2 [2]) | inhibition [1] | Activity (Hep 3B2 [3])
CC1(C)CCC[C@](C)([C@H]2CC[C@]3(C)[C@@H]2[C@H](OC(=O)Cn2nnnc2-c2ccccc2)C[C@@H]2[C@@]4(C)CCC(=O)C(C)(C)[C@@H]4CC[C@]23C)O1 | > 100 µM | > 100 µM |  | 
CC1(C)CCC[C@](C)([C@H]2CC[C@]3(C)[C@@H]2[C@H](O)C[C@@H]2[C@@]4(C)CC(=C\c5cccc(F)c5)/C(=N\NC(N)=O)C(C)(C)[C@@H]4CC[C@]23C)O1 | 3.5 µM | 5.2 µM |  | 
CC1(C)CCC[C@](C)([C@H]2CC[C@]3(C)[C@@H]2[C@H](O)C[C@@H]2[C@@]4(C)CC/C(=N\Nc5ccccc5Cl)C(C)(C)[C@@H]4CC[C@]23C)O1 | > 100 µM | > 100 µM |  | 
CC1(C)CCC[C@](C)([C@H]2CC[C@]3(C)[C@@H]2[C@H](O)C[C@@H]2[C@@]4(C)CC/C(=N\Nc5ccc(F)cc5)C(C)(C)[C@@H]4CC[C@]23C)O1 | 21.4 µM | > 100 µM |  | 
CC1(C)CCC[C@](C)([C@H]2CC[C@]3(C)[C@@H]2[C@H](O)C[C@@H]2[C@@]4(C)CC[C@H](O)C(C)(C)[C@@H]4CC[C@]23C)O1 [PANAXADIOL] | 9.1 µM | 31.7 µM |  | 
CC1(C)CCC[C@](C)([C@H]2CC[C@]3(C)[C@@H]2[C@H](O)C[C@@H]2[C@@]4(C)CC/C(=N\Nc5ccc(F)cc5F)C(C)(C)[C@@H]4CC[C@]23C)O1 | 12.8 µM | > 100 µM |  | 
CC1(C)CCC[C@](C)([C@H]2CC[C@]3(C)[C@@H]2[C@H](O)C[C@@H]2[C@@]4(C)CC/C(=N\Nc5cccc([N+](=O)[O-])c5)C(C)(C)[C@@H]4CC[C@]23C)O1 | 61.2 µM | > 100 µM |  | 
CC1(C)CCC[C@](C)([C@H]2CC[C@]3(C)[C@@H]2[C@H](O)C[C@@H]2[C@@]4(C)CC(=C\c5ccccc5F)/C(=N\NC(N)=O)C(C)(C)[C@@H]4CC[C@]23C)O1 | 5.9 µM | 5.6 µM |  | 
COc1ccc(/C=C2\C[C@]3(C)[C@H]4C[C@@H](O)[C@@H]5[C@@H]([C@@]6(C)CCCC(C)(C)O6)CC[C@@]5(C)[C@]4(C)CC[C@H]3C(C)(C)\C2=N\NC(=N)N)cc1 | 5.8 µM | 6.1 µM |  | 
COc1ccc(-c2nnnn2CC(=O)O[C@@H]2C[C@@H]3[C@@]4(C)CCC(=O)C(C)(C)[C@@H]4CC[C@@]3(C)[C@]3(C)CC[C@H]([C@@]4(C)CCCC(C)(C)O4)[C@@H]23)cc1 | > 100 µM | > 100 µM |  | 
CC1(C)CCC[C@](C)([C@H]2CC[C@]3(C)[C@@H]2[C@H](O)C[C@@H]2[C@@]4(C)CC/C(=N\Nc5cccc(Cl)c5)C(C)(C)[C@@H]4CC[C@]23C)O1 | 36.7 µM | > 100 µM |  | 
CC1(C)CCC[C@](C)([C@H]2CC[C@]3(C)[C@@H]2[C@H](OC(=O)Cn2nnnc2-c2ccc4c(c2)OCO4)C[C@@H]2[C@@]4(C)CCC(=O)C(C)(C)[C@@H]4CC[C@]23C)O1 | 40.9 µM | > 100 µM |  | 
CC1(C)CCC[C@](C)([C@H]2CC[C@]3(C)[C@@H]2[C@H](O)C[C@@H]2[C@@]4(C)CC/C(=N\Nc5ccccc5F)C(C)(C)[C@@H]4CC[C@]23C)O1 | 10.1 µM | > 100 µM |  | 
CC1(C)CCC[C@](C)([C@H]2CC[C@]3(C)[C@@H]2[C@H](OC(=O)CNc2cccc(-c4nnn[nH]4)c2)C[C@@H]2[C@@]4(C)CCC(=O)C(C)(C)[C@@H]4CC[C@]23C)O1 | > 100 µM | > 100 µM |  | 
CC1(C)CCC[C@](C)([C@H]2CC[C@]3(C)[C@@H]2[C@H](O)C[C@@H]2[C@@]4(C)CC(=C\c5ccc(F)cc5)/C(=N\NC(N)=S)C(C)(C)[C@@H]4CC[C@]23C)O1 | 9 µM | 24.1 µM |  | 
